Key:
Test in all cases: relative viability (nuclei count vs DMSO), 5 days (fraction); higher = more cells survive
[1] = compound: c1ccc2c(CCNc3ccc(Nc4ccncc4)cc3)c[nH]c2c1 [Serdemetan] + Cc1nc(NC(=O)N2CCC[C@H]2C(N)=O)sc1-c1ccnc(C(C)(C)C(F)(F)F)c1 [Alpelisib] (partner 2 µM)
Method in brief: (§1)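 Dosing by pin tool came one day after lung cancer cell lines were seeded in 1536-well plates, using either one drug or a fixed anchor-drug dose plus five library-drug doses (not always all listed) in √10 steps. After 5 days, nuclei were counted on 4× images. Relative viability is treated-well nuclei count divided by vehicle-well nuclei count, and values are medians of duplicate plates.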

[2] = compound: C1CC(C2=C(C1)C3=C(N2)C=CC(=C3)Cl)C(=O)N [Selisistat] + CC(C)C[C@H](NC(=O)[C@H](Cc1ccccc1)NC(=O)c1cnccn1)B(O)O [Bortezomib] (partner 0.002 µM)
Method in brief: as §1

[3] = compound: C1CC(C2=C(C1)C3=C(N2)C=CC(=C3)Cl)C(=O)N [Selisistat] + C[C@]1(O)C[C@@H](c2nc(-c3ccc4ccc(-c5ccccc5)nc4c3)c3c(N)nccn32)C1 [Linsitinib] (partner 1 µM)
Method in brief: as §1

[4] = compound: C1CC(C2=C(C1)C3=C(N2)C=CC(=C3)Cl)C(=O)N [Selisistat] + CC1(C)CCC(c2ccc(Cl)cc2)=C(CN2CCN(c3ccc(C(=O)NS(=O)(=O)c4ccc(N[C@H](CCN5CCOCC5)CSc5ccccc5)c(S(=O)(=O)C(F)(F)F)c4)cc3)CC2)C1 [Navitoclax] (partner 0.5 µM)
Method in brief: as §1

UMC-11
relative viability ([1]; first compound 0.04 µM): 0.914
relative viability ([1]; first compound 0.1265 µM): 0.988
relative viability ([1]; first compound 0.4 µM): 1.01
relative viability ([1]; first compound 1.265 µM): 0.751
relative viability ([1]; first compound 4 µM): 0.769
relative viability ([2]; first compound 0.4 µM): 0.494
relative viability ([2]; first compound 1.265 µM): 0.71
relative viability ([2]; first compound 4 µM): 0.738
relative viability ([2]; first compound 12.65 µM): 0.671
relative viability ([2]; first compound 40 µM): 0.626
relative viability ([3]; first compound 0.4 µM): 0.962
relative viability ([3]; first compound 1.265 µM): 0.935
relative viability ([3]; first compound 4 µM): 1.06
relative viability ([3]; first compound 12.65 µM): 0.948
relative viability ([3]; first compound 40 µM): 1.03
relative viability ([4]; first compound 0.4 µM): 0.296
relative viability ([4]; first compound 1.265 µM): 0.294
relative viability ([4]; first compound 4 µM): 0.276
relative viability ([4]; first compound 12.65 µM): 0.316
relative viability ([4]; first compound 40 µM): 0.332

From the supplement of paper PMC10307832
